According to US10292968B2, “Substituted heterocycles as bromodomain inhibitors” (Zenith Epigenetics Ltd., priority 2014, dated 2019):
Where a name gives a salt, the structure may show the parent alone.

Assays:
MV4-11 cells = test: Inhibition of cell proliferation in MV4-11 cells (Cell Titer Aqueous One); assay type: cell-based; settings: Human AML MV-4-11 cells, 72 h; for IC50: MV4-11
Description: MV4-11 cells (CRL-9591) were plated at a density of 5×10^4 cells per well in 96 well flat bottom plates and treated with increasing concentrations of test compound or DMSO (0.1%) in IMDM media containing 10% FBS and penicillin/streptomycin. Triplicate wells were used for each concentration and a well containing only media was used as a control. Plates were incubated at 37° C., 5% CO2 for 72 h before adding 20 μL of the Cell Titer Aqueous One Solution (Promega) to each well and incubated at 37° C., 5% CO2 for an additional 3-4 h. The absorbance was read at 490 nm in a spectrophotometer and the percentage of cell titer relative to DMSO-treated cells was calculated after correcting for background by subtracting the blank well's signal. IC50 values were calculated using the GraphPad Prism software.

hIL-6 = test: Inhibition of hIL-6 mRNA transcription in LPS-stimulated U937 cells; assay type: cell-based; settings: Homo sapiens, U-937, PMA-differentiated U937 cells, 1 h pretreatment, LPS 3 h, read-out: IL-6 activity
Description: Human leukemic monocyte lymphoma U937 cells (CRL-1593.2) were plated at a density of 3.2×10^4 cells per well in a 96-well plate in 100 μL RPMI-1640 containing 10% FBS and penicillin/streptomycin, and differentiated into macrophages for 3 days in 60 ng/mL PMA ([…]) at 37° C. in 5% CO2 prior to the addition of compound. The cells were pretreated for 1 h with increasing concentrations of test compound in 0.1% DMSO prior to stimulation with 1 ug/mL lipopolysaccharide from Escherichia coli. Triplicate wells were used for each concentration. The cells were incubated at 37° C., 5% CO2 for 3 h before the cells were harvested. At time of harvest, media was removed and cells were rinsed in 200 μL PBS. Cells were harvested using the mRNA Catcher PLUS kit according to manufacturer's instructions. The eluted mRNA was then used in a one-step quantitative real-time PCR reaction using components of the RNA UltraSense™ One-Step Kit (Life Technologies) together with Applied Biosystems TaqMan® primer-probes for hIL-6 and Cyclophilin. Real-time PCR plates were run on a ViiA™7 real time PCR machine (Applied Biosystems), data was analyzed, normalizing the Ct values for hIL-6 to an internal control, prior to determining the fold expression of each sample, relative to the control.

[1] = target: T1, Brd 4 bromodomain 2 (BRD4(2)) (Homo sapiens, UniProt O60885); test: AlphaScreen inhibition of tetra-acetylated histone H4 binding to BRD4(2); settings: BRD4(2) at 100 nM, tetra-acetylated histone H4 peptide, 30 min incubation; for IC50: read-out: Alpha Screen BRD4(2)
T1 construct: N-terminally His-tagged bromodomains (BRD4(1) at 20 nM and BRD4(2) at 100 nM); made in house; host or cells: E. coli BL21(DE3)
Description: (§1) Proteins were cloned and overexpressed with a N-terminal 6×His tag, then purified by nickel affinity followed by size exclusion chromatography. Briefly, E. coli BL21(DE3) cells were transformed with a recombinant expression vector encoding N-terminally Nickel affinity tagged bromodomains from Brd2, Brd3, Brd4. Cell cultures were incubated at 37° C. with shaking to the appropriate density and induced overnight with IPTG. The supernatant of lysed cells was loaded onto Ni-IDA column for purification. Eluted protein was pooled, concentrated and further purified by size exclusion chromatography. Fractions representing monomeric protein were pooled, concentrated, aliquoted, and frozen at −80° C. for use in subsequent experiments.
(§2) Binding of tetra-acetylated histone H4 peptide (Millipore) and BET bromodomains was confirmed by Amplified Luminescent Proximity Homogenous Assay (AlphaScreen). N-terminally His-tagged bromodomains (BRD4(1) at 20 nM and BRD4(2) at 100 nM) and biotinylated tetra-acetylated histone H4 (10-25 nM) were incubated in the presence of nickel chelate acceptor beads and streptavidin donor beads (PerkinAlmer, 6760000K) added to a final concentration of 2 μg/ml under green light in a white 96 well microtiter plate (Greiner). For inhibition assays, serially diluted compounds were added to the reaction mixtures in a 0.1% final concentrations of DMSO. Final buffer concentrations were 50 mM HEPES, 100 mM NaCl and 0.1% BSA buffer, pH 7.4 and optimized to 30 min incubation time. Assay plates were read at 570 nm on a Synergy H4 Plate Reader (Biotek). IC50 values were determined from a dose response curve.

[2] = target: T2, Brd4 bromodomain 1 (BRD4(1)) (Homo sapiens, UniProt O60885); test: AlphaScreen inhibition of tetra-acetylated histone H4 binding to BRD4(1); settings: BRD4(1) at 20 nM, tetra-acetylated histone H4 peptide, 30 min incubation; read-out: Alpha Screen BRD4(1)
T2 construct: N-terminally His-tagged bromodomains (BRD4(1) at 20 nM and BRD4(2) at 100 nM); made in house; host or cells: E. coli BL21(DE3)
Description: as §1, §2

cMYC = test: Inhibition of cMYC expression (mRNA, real-time PCR) in MV4-11 cells; assay type: cell-based; settings: Human AML MV4-11 cells, 3 h; for IC50: read-out: c-myc activity
Description: MV4-11 cells (CRL-9591) were plated at a density of 2.5×10^4 cells per well in 96 well U-bottom plates and treated with increasing concentrations of test compound or DMSO (0.1%) in IMDM media containing 10% FBS and penicillin/streptomycin, and incubated for 3 h at 37° C. Triplicate wells were used for each concentration. Cells were pelleted by centrifugation and harvested using the mRNA Catcher PLUS kit according to manufacturer's instructions. The eluted mRNA isolated was then used in a one-step quantitative real-time PCR reaction, using components of the RNA UltraSense™ One-Step Kit (Life Technologies) together with Applied Biosystems TaqMan® primer-probes for cMYC and Cyclophilin. Real-time PCR plates were run on a ViiA™7 real time PCR machine (Applied Biosystems), data was analyzed, normalizing the Ct values for cMYC to an internal control, prior to determining the fold expression of each sample, relative to the control.

| Compound | IC50 (MV4-11 cells) [µM] | IC50 (hIL-6) [µM] | IC50 [1] [µM] | IC50 [2] [µM] | IC50 (cMYC) [µM] | Cell Proliferation activity (MV4-11 cells) | c-myc activity (cMYC) | Alpha Screen BRD4(2) [1] |
| --- | --- | --- | --- | --- | --- | --- | --- | --- |
| CC(=O)c1cccc(-c2[nH]c(-c3ccccc3)nc2-c2n[nH]c(=O)n2C2CC2)c1 [Example 1, 3-(5-(3-acetylphenyl)-2-phenyl-1H-imidazol-4-yl)-4-cyclopropyl-1H-1,2,4-triazol-5(4H)-one hydrochloride] | 3 to 30 | 3 to 30 | 3 to 30 | ≤ 0.3 | 3 to 30 |  |  |  |
| COC(=O)c1ccc(C)c(-c2[nH]c(-c3ccccc3)nc2-c2n[nH]c(=O)n2C2CC2)c1 [Example 2, methyl 3-(4-(4-cyclopropyl-5-oxo-4,5-dihydro-1H-1,2,4-triazol-3-yl)-2-phenyl-1H-imidazol-5-yl)-4-methyl benzoate hydrochloride] |  |  | 3 to 30 | 3 to 30 |  | Not Active | Not Active |  |
| NC(=O)c1cccc(-c2[nH]c(-c3ccccc3)nc2-c2n[nH]c(=O)n2C2CC2)c1 [Example 4, 3-(4-(4-cyclopropyl-5-oxo-4,5-dihydro-1H-1,2,4-triazol-3-yl)-2-phenyl-1H-imidazol-5-yl) benzamide hydrochloride] | 3 to 30 |  |  | 3 to 30 | 3 to 30 |  |  | Not Active |
| CCC(=O)c1cccc(-c2[nH]c(-c3ccccc3)nc2-c2n[nH]c(=O)n2C2CC2)c1 [Example 6, 4-cyclopropyl-3-(2-phenyl-5-(3-propionylphenyl)-1H-imidazol-4-yl)-1H-1,2,4-triazol-5(4H)-one hydrochloride] | 3 to 30 |  | 3 to 30 | 0.3 to 3 | 3 to 30 |  |  |  |
| Cn1ncc2ccc(-c3[nH]c(-c4ccccc4)nc3-c3n[nH]c(=O)n3C3CC3)cc21 [Example 7, 4-cyclopropyl-3-(5-(1-methyl-1H-indazol-6-yl)-2-phenyl-1H-imidazol-4-yl)-1H-1,2,4-triazol-5(4H)-one hydrochloride] | 3 to 30 | 3 to 30 |  | ≤ 0.3 | 3 to 30 |  |  | Not Active |
| CC(=O)c1cc(-c2[nH]c(-c3ccccc3)nc2-c2n[nH]c(=O)n2C2CC2)ccc1F [Example 8, 3-(5-(3-acetyl-4-fluorophenyl)-2-phenyl-1H-imidazol-4-yl)-4-cyclopropyl-1H-1,2,4-triazol-5(4H)-one hydrochloride] |  | 3 to 30 |  | ≤ 0.3 |  | Not Active | Not Active | Not Active |
| CC(=O)c1cc(F)cc(-c2[nH]c(-c3ccccc3)nc2-c2n[nH]c(=O)n2C2CC2)c1 [Example 9, 3-(5-(3-acetyl-5-fluorophenyl)-2-phenyl-1H-imidazol-4-yl)-4-cyclopropyl-1H-1,2,4-triazol-5(4H)-one hydrochloride] | 3 to 30 | 3 to 30 |  | 0.3 to 3 | 3 to 30 |  |  | Not Active |
| Cn1ncc2cc(-c3[nH]c(-c4ccccc4)nc3-c3n[nH]c(=O)n3C3CC3)ccc21 [Example 10, 4-cyclopropyl-3-(5-(1-methyl-1H-indazol-5-yl)-2-phenyl-1H-imidazol-4-yl)-1H-1,2,4-triazol-5(4H)-one hydrochloride] |  |  | 0.3 to 3 | 3 to 30 |  | Not Active | Not Active |  |
| Cc1n[nH]c2ccc(-c3[nH]c(-c4ccccc4)nc3-c3n[nH]c(=O)n3C3CC3)cc12 [Example 13, 4-cyclopropyl-3-(5-(3-methyl-1H-indazol-5-yl)-2-phenyl-1H-imidazol-4-yl)-1H-1,2,4-triazol-5(4H)-one hydrochloride] | 3 to 30 |  | 0.3 to 3 | 0.3 to 3 | 3 to 30 |  |  |  |
| Cn1nnc2ccc(-c3[nH]c(-c4ccccc4)nc3-c3n[nH]c(=O)n3C3CC3)cc21 [Example 14, 4-cyclopropyl-3-(5-(1-methyl-1H-benzo[d][1,2,3]triazol-6-yl)-2-phenyl-1H-imidazol-4-yl)-1H-1,2,4-triazol-5(4H)-one hydrochloride] | 3 to 30 | 3 to 30 | ≤ 0.3 | ≤ 0.3 | 3 to 30 |  |  |  |
| CC(C)Cn1c(-c2nc(-c3ccccc3)[nH]c2-c2ccc3cnn(C)c3c2)n[nH]c1=O [Example 18, 4-isobutyl-3-(5-(1-methyl-1H-indazol-6-yl)-2-phenyl-1H-imidazol-4-yl)-1H-1,2,4-triazol-5(4H)-one] |  |  | 3 to 30 | 0.3 to 3 |  |  | Not Active |  |
| Cn1ncc2ccc(-c3[nH]c(-c4ccccc4)nc3-c3n[nH]c(=O)n3C3CCC3)cc21 [Example 19, 4-cyclobutyl-3-(5-(1-methyl-1H-indazol-6-yl)-2-phenyl-1H-imidazol-4-yl)-1H-1,2,4-triazol-5(4H)-one] |  |  | 3 to 30 | 0.3 to 3 | 3 to 30 |  |  |  |
| Cn1cc(-c2nc(-c3n[nH]c(=O)n3C3CC3)c(-c3ccc4cnn(C)c4c3)[nH]2)cn1 [Example 25, 4-cyclopropyl-3-(5-(1-methyl-1H-indazol-6-yl)-2-(1-methyl-1H-pyrazol-4-yl)-1H-imidazol-4-yl)-1H-1,2,4-triazol-5(4H)-one hydrochloride] |  |  | 3 to 30 | 0.3 to 3 |  |  |  |  |
| Cn1ncc2ccc(-c3[nH]c(-c4cn[nH]c4)nc3-c3n[nH]c(=O)n3C3CC3)cc21 [Example 26, 4-cyclopropyl-3-(5-(1-methyl-1H-indazol-6-yl)-2-(1H-pyrazol-4-yl)-1H-imidazol-4-yl)-1H-1,2,4-triazol-5(4H)-one hydrochloride] |  |  | 3 to 30 | 3 to 30 |  |  |  |  |
| Cn1nc(-c2nc(-c3ccccc3)[nH]c2-c2ccc3cnn(C)c3c2)n(C2CC2)c1=O [Example 27, 4-cyclopropyl-1-methyl-3-(5-(1-methyl-1H-indazol-6-yl)-2-phenyl-1H-imidazol-4-yl)-1H-1,2,4-triazol-5(4H)-one hydrochloride] |  |  |  | 3 to 30 |  |  |  | Not Active |
